Experiments:
rat fat cells [1] = test: Glucose transport in isolated rat fat cells (insulin-like activity); type: cell-based, rat (Wistar); conditions: for Emax: 0.25 h, read-out: Glucose transport % Insmax; for EC50: read-out: Glucose transport EC50
Procedure: (§1) This example provides exemplary methods for determining insulin-like activity. The biological activity of the compounds of the formula I according to the invention is determined with the aid of isolated fat cells from the rat.
(§2) The preparation of fat cells from the rat was carried out as follows: White fatty tissue of the epididymis (Wistar rat, 160-180 g, no food restriction) is digested with collagenase and the resulting isolated fat cells are separated off by means of filtration of undigested tissue and washed by flotation several times using Krebs-Ringer-Henseleit buffer (KRH buffer).
[…] After addition of 15 μl of 2-[^3 H]-deoxyglucose (0.3 mM, 0.2 μCi), the incubation is continued at room temperature. After specified times (0-20 min), 100 μl of the test batch are removed and transferred to a reaction vessel (contents 400 μl), in which 250 μl of dinonyl phthalate have been initially introduced. After centrifugation (15,000×g, 1 min), the cells are separated off from the oily layer of the incubation medium underneath the oily layer by cutting the tube at the level of the oily layer and transferring to a scintillation vessel. After addition of 5 ml of water-soluble scintillation fluid, the radioactivity is determined. This total cell-associated radioactivity is corrected for [^3 H]-deoxyglucose which has passively diffused into the cells and is included in the cell interstices by subtraction of a control value (incubation in the presence of the glucose transport inhibitor cytochalasin B). The initial (stimulated) glucose transport rate is linear up to 15 min. The maximum stimulation factor--this is the ratio of the incubation result with insulin to the incubation result without insulin--is set at 100%.
The terms "%Insmax " and "EC50 " are as defined under A) lipogenesis.

rat fat cells [2] = test: Lipogenesis in isolated rat fat cells (insulin-like activity); type: cell-based, rat (Wistar); conditions: 1.5 h; for EC50: read-out: Lipogenesis EC50; for Emax: read-out: Lipogenesis % Insmax
Procedure: as §1, §2
This test determines the insulin-stimulable conversion of glucose into toluene-soluble products (triglycerides, phospholipids, fatty acids), which promotes glucose transport and triglyceride (glycerol-3-P synthesis, esterification)/phospholipid/fatty acid synthesis including the insulin signal transmission cascade. At a glucose concentration of 2.5 mM in the test, the esterification (and not the glycerol-3-P synthesis including glucose transport) is rate-determining for the stimulation of lipogenesis.
200 μl (3×10^5 cells/ml) of rat fat cells in KRH buffer are incubated at 37° C. for 90 min with 100 μl of D-[3-^3 H] glucose (25 mM, 0.4 μCi) in the presence or absence of insulin (10 ng/ml) or compound of the formula I according to the invention (final volume 1 ml). By addition of a toluene-soluble scintillation cocktail (10 ml), the cells are disrupted and the lipids are separated off from water-soluble products and the incubation medium. After phase separation, the radioactivity incorporated in lipid products is determined directly without removal of the aqueous phase by scintillation measurement ([^3 H]lipid [dpm×10^-3 ]). A control value (incubation under identical conditions but without cells) is subtracted from this radioactivity. The lipogenesis rate is linear up to 120 min. The maximum stimulation factor--this is the ratio of the incubation result with insulin to the incubation results without insulin--is set at 100%. The percentage data under "%Insmax " are parts of the maximum stimulation factor defined in this way. The term EC50 indicates the concentration of the compound of the formula I at which 50% of the maximum stimulation to be achieved by the respective compound of the formula I is to be observed.

[3] = part of maximum stimulation factor of insulin (set at 100%), rat fat cells, 15 min, 37° C., 2-[3H]-deoxyglucose
[4] = concentration at 50% of the maximum stimulation achieved by the respective compound, rat fat cells, 2-[3H]-deoxyglucose
[5] = concentration at 50% of the maximum stimulation achieved by the respective compound, rat fat cells, 90 min, 37° C.
[6] = part of maximum stimulation factor of insulin (set at 100%), rat fat cells, 90 min, 37° C., D-[3-3H]glucose

SMILES	EC50 (rat fat cells [1]; [4]) [µM]	EC50 (rat fat cells [2]; [5]) [µM]	Emax (rat fat cells [1]; [3]) [%]	Emax (rat fat cells [2]; [6]) [%]	Emax (rat fat cells [1]; Rattus norvegicus) [%]	EC50 (rat fat cells [1]; Rattus norvegicus) [µM]	Emax (rat fat cells [2]; Rattus norvegicus) [%]	EC50 (rat fat cells [2]; Rattus norvegicus) [µM]
N[C@H]1[C@H](O[C@@H]2[C@@H](O)[C@H](O)[C@@H](O)[C@H]3OP(O)(=S)O[C@H]32)O[C@H](CO)[C@@H](O[C@H]2O[C@H](CO[C@H]3O[C@H](CO)[C@@H](O)[C@H](O)[C@@H]3O[C@H]3O[C@H](CO[PH](=O)O)[C@@H](O)[C@H](O)[C@@H]3O[C@H]3O[C@H](CO)[C@@H](O)[C@H](O)[C@@H]3O)[C@@H](O)[C@H](O)[C@@H]2O)[C@@H]1O (stereo partly drawn) [C, HO-PO(H)O-6Manα1(Manα1-2)-2Manα1-6Manα1-4GluNβ1-6(D)inositol-1,2-(cyclic)-thiophosphate]	–	–	–	–	29	10	64	7
N[C@H]1[C@H](O[C@H]2[C@H](O)[C@@H](O)[C@H](OP(=O)(O)O)[C@H](O)[C@@H]2O)O[C@H](CO)[C@@H](O)[C@@H]1O[C@H]1O[C@H](CO[C@H]2O[C@H](CO)[C@@H](O)[C@H](O)[C@@H]2O[C@H]2O[C@H](CO[PH](=O)O)[C@@H](O)[C@H](O)[C@@H]2O[C@H]2O[C@H](CO)[C@@H](O)[C@H](O)[C@@H]2O)[C@@H](O)[C@H](O)[C@@H]1O [D, HO-PO(H)O-6Manα1(Manα1-2)-2Manα1-6Manα1-3GluNβ1-6(L)inositol-3-phosphate]	18	20	18	33	–	–	–	–
NCCOP(=O)(O)OC[C@H]1O[C@H](OC[C@H]2O[C@H](O[C@H]3[C@H](O)[C@@H](N)[C@H](O[C@@H]4[C@@H](O)[C@H](O)[C@@H](O)[C@H]5OP(=O)(O)O[C@H]54)O[C@@H]3CO)[C@@H](OP(=O)(O)OCCN)[C@@H](O)[C@@H]2O)[C@@H](O[C@H]2O[C@H](CO[PH](=O)O)[C@@H](O)[C@H](O)[C@@H]2O[C@H]2O[C@H](CO)[C@@H](O)[C@H](O)[C@@H]2O)[C@@H](O)[C@@H]1O [E, HO-PO(H)O-6Manα1(Manα1-2)-2Manα1(6-EtNP)-6Manα1(2-EtNP)-4GluNβ1-6(D)inositol-1,2-(cyclic)-phosphate]	30	60	34	48	–	–	–	–
O=[PH](O)OC[C@H]1O[C@H](OC[C@H]2O[C@H](OC[C@H]3O[C@H](OC[C@H]4O[C@H](OC[C@H]5O[C@H](O[C@H]6[C@H](O)[C@@H](O)[C@H](OP(=O)(O)O)[C@H](O)[C@@H]6O)[C@@H](O)[C@@H](O)[C@@H]5O)[C@@H](O)[C@@H](O)[C@@H]4O)[C@@H](O)[C@@H](O)[C@@H]3O)[C@@H](O)[C@@H](O)[C@@H]2O)[C@@H](O)[C@@H](O)[C@@H]1O [O, HO-PO(H)O-6-Manα1-6Manα1-6Manα-1-6Manα1-6Manα1-6(L)inositol-3-phosphate]	50	20	5	10	–	–	–	–
N[C@H]1[C@H](O[C@H]2[C@H](O)[C@@H](O)[C@H](OP(=O)(O)O)[C@H](O)[C@@H]2O)O[C@H](CO)[C@@H](O)[C@@H]1O[C@H]1O[C@H](CO[C@H]2O[C@H](CO[PH](=O)O)[C@@H](O)[C@H](O)[C@@H]2O[C@H]2O[C@H](CO[PH](=O)O)[C@@H](O)[C@H](O)[C@@H]2O)[C@@H](O)[C@H](O)[C@@H]1O [Q, HO-PO(H)O-6Manα1-2Manα1(6-PO(H)OH)-6-Manα1-3GluNβ1-6(L)inositol-3-phosphate]	30	40	18	44	–	–	–	–

Further lines, with some results ahead:

EC50 (rat fat cells [1]; [4]) [µM]	EC50 (rat fat cells [2]; [5]) [µM]	SMILES	Emax (rat fat cells [1]; [3]) [%]	Emax (rat fat cells [2]; [6]) [%]	Emax (rat fat cells [1]; Rattus norvegicus) [%]	EC50 (rat fat cells [1]; Rattus norvegicus) [µM]	Emax (rat fat cells [2]; Rattus norvegicus) [%]	EC50 (rat fat cells [2]; Rattus norvegicus) [µM]
8	7	N[C@H]1[C@H](O[C@H]2[C@H](O)[C@@H](O)[C@H](O)[C@@H]3OP(=O)(O)O[C@H]23)O[C@H](CO)[C@@H](O[C@H]2O[C@H](CO[C@H]3O[C@H](CO)[C@@H](O)[C@H](O)[C@@H]3O[C@H]3O[C@H](CO[PH](=O)O)[C@@H](O)[C@H](O)[C@@H]3O[C@H]3O[C@H](CO)[C@@H](O)[C@H](O)[C@@H]3O)[C@@H](O)[C@H](O)[C@@H]2O)[C@@H]1O [A, HO-PO(H)O-6Manα1(Manα1-2)-2Manα1-6Manα1-4GluNβ1-6(L)inositol-1,2-(cyclic)-phosphate]	28	59	–	–	–	–
8.1	8.2	N[C@H]1[C@H](O[C@@H]2[C@@H](O)[C@H](O)[C@@H](O)[C@H]3OP(=O)(O)O[C@H]32)O[C@H](CO)[C@@H](O[C@H]2O[C@H](CO[C@H]3O[C@H](CO)[C@@H](O)[C@H](O)[C@@H]3O[C@H]3O[C@H](CO[PH](=O)O)[C@@H](O)[C@H](O)[C@@H]3O[C@H]3O[C@H](CO)[C@@H](O)[C@H](O)[C@@H]3O)[C@@H](O)[C@H](O)[C@@H]2O)[C@@H]1O [B, HO-PO(H)O-6Manα1(Manα1-2)-2Manα1-6Manα1-4GluNβ1-6(D)inositol-1,2-(cyclic)-phosphate]	41	77	–	–	–	–
15	15	N[C@H]1[C@@H](O[C@H]2[C@H](O)[C@@H](O)[C@H](O)[C@@H]3OP(=O)(O)O[C@H]23)O[C@H](CO)[C@@H](O[C@H]2O[C@H](CO[PH](=O)O)[C@@H](O)[C@H](O)[C@@H]2O)[C@@H]1O [G, HO-PO(H)O-6Manα1-4GluNα1-6(L)inositol-1,2-(cyclic)-phosphate]	9	25	–	–	–	–
10	25	N[C@H]1[C@@H](O[C@H]2[C@H](O)[C@@H](O)[C@H](O)[C@H](O)[C@@H]2O)O[C@H](CO)[C@@H](O[C@H]2O[C@H](CO[PH](=O)O)[C@@H](O)[C@H](O)[C@@H]2O)[C@@H]1O [H, HO-PO(H)O-6Manα1-4GluNα1-6(L)inositol]	2	15	–	–	–	–
6	7	N[C@H]1[C@H](O[C@@H]2[C@@H](O)[C@H](O)[C@@H](O)[C@H]3OP(=O)(O)O[C@H]32)O[C@H](CO)[C@@H](O[C@H]2O[C@H](CO[C@H]3O[C@H](CO[PH](=O)O)[C@@H](O)[C@H](O)[C@@H]3O[C@H]3O[C@H](CO[PH](=O)O)[C@@H](O)[C@H](O)[C@@H]3O[C@H]3O[C@H](CO)[C@@H](O)[C@H](O)[C@@H]3O)[C@@H](O)[C@H](O)[C@@H]2O)[C@@H]1O [M, HO-PO(H)O-6Manα1(Manα1-2)-2Manα1(6-PO(H)OH)-6Manα1-4GluNβ1-6(D)-inositol-1,2-(cyclic)-phosphate]	39	90	–	–	–	–
5	3	N[C@H]1[C@H](O[C@@H]2[C@@H](O)[C@H](O)[C@@H](O)[C@H]3OP(=O)(O)O[C@H]32)O[C@H](CO)[C@@H](O[C@H]2O[C@H](CO[C@H]3O[C@H](COS(=O)(=O)O)[C@@H](O)[C@H](O)[C@@H]3O[C@H]3O[C@H](COS(=O)(=O)O)[C@@H](O)[C@H](O)[C@@H]3O[C@H]3O[C@H](CO)[C@@H](O)[C@H](O)[C@@H]3O)[C@@H](O)[C@H](O)[C@@H]2O)[C@@H]1O [N, HO-SO2 -O-6Manα1(Manα1-2)-2Manα1(6-HSO3)-6Manα1-4-GluNβ1-6(D)-inositol-1,2-(cyclic)-phosphate]	52	96	–	–	–	–
10	15	NC(=O)OC[C@H]1O[C@H](O[C@@H]2[C@@H](OC[C@H]3O[C@H](O[C@@H]4[C@@H](N)[C@H](O[C@H]5[C@H](O)[C@@H](O)[C@H](OP(=O)(O)O)[C@H](O)[C@@H]5O)O[C@H](CO)[C@H]4O)[C@@H](O)[C@@H](O)[C@@H]3O)O[C@H](COC(N)=O)[C@@H](O)[C@@H]2O)[C@@H](O[C@H]2O[C@H](CO)[C@@H](O)[C@H](O)[C@@H]2O)[C@@H](O)[C@@H]1O [R, H2 N-CO-O-6Manα1(Manα1-2)-2Manα1(6-CO-NH2)-6Manα1-3GluNβ1-6(L)inositol-3-phosphate]	19	48	–	–	–	–

From US6004938A, “Inositolglycans having insulin-like action” (Hoescht Aktiengesellschaft, priority 1996, dated 1999)
